Measurements reported in US11844806B2 (Asamedic AS, priority 2017, dated 2023).

Tests used:
[1] = Dissolution of ASA on mixing with phosphate salt solution or water, shaken in the two component device; type: physicochemical
Experimental: (§1) The cap comprising the powder compartment and the cutting element was assembled with the container comprising the solution.
(§2) The cap was then turned down until the seal keeping the powder and the solution separately was broken by the cutting element. […] The device was then shaken until all ASA was dissolved.
(§3) The solution was then shaken until all ASA was dissolved. A light-yellow coloring of the solution was observed.
(§4) After releasing the ASA and sodium carbonate into the water, the solution was shaken until all ASA was dissolved.

[2] = pH of the solution after dissolution of ASA; type: physicochemical; settings: for Measured pH of the solutions after dissolution of ASA: 300 mg ASA
Experimental: as §1, §2
Further aqueous solutions of salts of phosphoric acid were prepared. These phosphoric acid salt solutions were prepared in order to test the dissolution time of ASA at different final pH values i.e. the pH in the final ASA solution that are to be taken by the patient. Thus, the amount (mg) of the salt of phosphoric acid to be used was calculated based on the final pH to be obtained (theoretically pH).
as §3, §4

Time before ASA was dissolved ([1]; 300 mg ASA and 258-263 mg Na2CO3 released together into 15 ml pure water, test device, Example 7 (carbonate comparison)): approx. 120 sec.
Time in which ASA is dissolved in the Na2HPO4 solutions ([1]; 300 mg ASA, 15 ml, pH in the final solution set between approximately 7 to 8 (summary of table 2)): ≤ 25 s
Time in which ASA is dissolved in the Na3PO4.12H2O solution ([1]; 300 mg ASA, 15 ml, pH in the final solution set to approximately 7 (summary of table 3)): ≤ 25 s
Time until all ASA was dissolved ([1]; 300 mg crushed ASA and 1000 mg crushed Na2HPO4 released together into 15 ml pure water, test device, Example 3): ≤ 30 s
Time until all ASA was dissolved ([1]; 304 mg ASA and 610 mg Na3PO4 released at the same time into 15 ml pure water, Example 5): ≤ 30 s
300 mg ASA in 15 ml solution dissolved within 25 seconds ([1]; 422 mg (1.11 · 10^−3 mol) Na3PO4•12H2O in 15 ml, theoretical pH 7.2): yes
300 mg ASA in 15 ml solution dissolved within 25 seconds ([1]; 474 mg (3.34 · 10^−3 mol) Na2HPO4 in 15 ml, theoretical pH 7.2): Yes
300 mg ASA in 15 ml solution dissolved within 25 seconds ([1]; 950 mg (6.67 · 10^−3 mol) Na2HPO4 in 15 ml, theoretical pH 7.7): Yes
300 mg ASA in 15 ml solution dissolved within 25 seconds ([1]; 1730 mg (1.21 · 10^−2 mol) Na2HPO4 in 15 ml, theoretical pH 8.0): Yes
pH of the solutions after dissolution of ASA and the carbonate salt ([2]; 300 mg ASA and 258-263 mg Na2CO3 in 15 ml pure water, Example 7): 9.41-9.43
Measured pH of the solutions after dissolution of ASA ([2]; 422 mg Na3PO4•12H2O in 15 ml, theoretical pH 7.2): 7.6
Measured pH of the solutions after dissolution of ASA ([2]; 474 mg Na2HPO4 in 15 ml, theoretical pH 7.2): 7.0
Measured pH of the solutions after dissolution of ASA ([2]; 1730 mg Na2HPO4 in 15 ml, theoretical pH 8.0): 7.7
pH of the solution after dissolution of ASA and the hydrogen phosphate salt ([2]; 300 mg crushed ASA and 1000 mg crushed Na2HPO4 in 15 ml pure water, Example 3): 7
pH of the solution after dissolution of ASA and the phosphate salt ([2]; 304 mg ASA and 610 mg Na3PO4 in 15 ml pure water, Example 5): 10.72
SMILES: CC(=O)Oc1ccccc1C(=O)O [ASA, acetylsalicylic acid]
